From patent publication US12545688B2, “Camptothecin derivative and conjugate thereof” (SICHUAN BAILI PHARMACEUTICAL CO., LTD, priority 2019, dated 2026)
Read-outs that look alike come from different tables or passages of the source.

What was measured:
Experiment in all cases: In vitro activity test, inhibition of target cell proliferation (MTS)
Type in all cases: cell-based
A431 = details: Homo sapiens, A-431, 96 h, read-out: IC50 for the inhibition of target cell proliferation in vitro, A431
Experimental: (§1) • Cells: A431, SW620, BXPC3, Fadu from the Cell Bank of the Chinese Academy of • Sciences Cell • Culture medium DMEM: Gibco • FBS: BIOWEST
(§2) • Growth medium (with 10% FBS, Penicillin/streptomycin (100 U/mL) • Detection medium (with 1% FBS, Penicillin/streptomycin (100 U/mL)
(§3) Turn on the UV light of the biological safety cabinet 30 minutes in advance, and then turn on the ventilation for 3 minutes. The growth medium, detection medium, D-PBS and trypsin were preheated in a constant temperature water bath at 37° C., and then the surfaces were disinfected with alcohol and placed in a biological safety cabinet. Place the cells with a confluence of about 80% in a biological safety cabinet, aspirate the old medium, rinse with D-PBS, aspirate and discard, digest with trypsin for 2-3 min, add growth medium to neutralize, and centrifuge. 1200 rpm, 3 min. Aspirate the centrifugation supernatant, mix with 4 mL of detection medium, and count 100 uL (50 uL of cell fluid is taken out, 50 μL of Trypan Blue Stain is added and mixed, and counted after mixing). According to the pre-optimized cell plating density, 80 ul/well was plated in a 96-well plate. Only 80 uL detection medium was added to wells E11 and F11, and 150 uL of DPBS was added to the edge wells. 24 h after plating, add diluted antibody, 20 uL per well and set control, only add 20 uL detection medium in column 11, set 2 duplicate wells for each concentration, and mix on a cell vortex shaker after adding, 550 rpm, 3 min.
(§4) Dilution of the antibody solution: use the detection medium to prepare the test solution with an initial concentration of 5 uM and 300 uL in the first column of the V-shaped 96-well plate, and then add 240 uL of detection medium to the second to 10th columns respectively, take 60 uL from the first column of mixing and add it to the second column, mix up and down with a row gun for 10 times, discard the pipette tip, and operate the following 7 concentrations in sequence.
(§5) After 4 days, take out the MTS reagent, thaw at room temperature in the dark, vortex and mix well, add 20 μL of CellTiter One Solution Reagen MTS reagent per 100 μL of cell culture volume along the side wall of the well in the biological safety cabinet, and tap gently. After the MTS solution was evenly mixed, it was placed in a cell incubator for 2 h in the dark. After the reaction, the 96-well plate was taken out, the absorbance at OD490 nm was detected in a microplate reader, and the data was recorded, organized, analyzed and stored.

Bxpc-3 = details: Homo sapiens, read-out: IC50 for the inhibition of target cell proliferation in vitro, Bxpc-3
Experimental: as §1, §2, §3, §4, §5

Fadu = details: Homo sapiens, 96 h, read-out: IC50 for the inhibition of target cell proliferation in vitro, Fadu
Experimental: as §1, §2, §3, §4, §5

SW620 = details: Homo sapiens, SW-620, 96 h, read-out: IC50 for the inhibition of target cell proliferation in vitro, SW620
Experimental: as §1, §2, §3, §4, §5

[1] = 96 h, Bxpc-3 cells, MTS after 4 days

SMILES	IC50 (A431; A431 cells, MTS after 4 days) [nM]	IC50 (Bxpc-3; [1]) [nM]	IC50 (Fadu; Fadu cells, MTS after 4 days) [nM]	IC50 (SW620; SW620 cells, MTS after 4 days) [nM]	IC50 (A431) [nM]	IC50 (Bxpc-3; BXPC-3, 96 h) [nM]	IC50 (Fadu; FaDu) [nM]	IC50 (SW620) [nM]
CC[C@@]1(O)C(=O)OCc2c1cc1n(c2=O)Cc2c-1nc1cc(F)c(C)c3c1c2[C@@H](N(C)C(=O)CO)CC3 [Compound 6]	3.63	13.1	1.64	17.7	–	–	–	–
CCCN(C(=O)CO)[C@H]1CCc2c(C)c(F)cc3nc4c(c1c23)Cn1c-4cc2c(c1=O)COC(=O)[C@]2(O)CC [Compound 12]	–	–	–	–	1.1	1.6 to 8	0.13	200 to 1000
CC[C@@]1(O)C(=O)OCc2c1cc1n(c2=O)Cc2c-1nc1cc(F)c(C)c3c1c2[C@@H](N(C)C(=O)C1(O)CC1)CC3 [Compound 14]	–	–	–	–	93.3	153	53	200 to 1000
CC[C@@]1(O)C(=O)OCc2c1cc1n(c2=O)Cc2c-1nc1cc(F)c(C)c3c1c2[C@@H](N(C)C(=O)[C@H](C)O)CC3 [Compound 16]	0.03	0.00256 to 0.0128	0.0014	0.064 to 0.32	–	–	–	–
